Literature values in paper PMC3848067 (Acta Naturae, 2013).
Where two headings read alike, the source gives them in different places.

Legend:
[1] = dogs, value for the tested compound (2 or its metabolite AZT), cited from earlier work
[2] = rabbits, single oral dose of the named compound equivalent to 200 mg of AZT/kg; cited from earlier work
[3] = dogs, cited from earlier work; for tmax of AZT: oral phosphonate 2 capsules 600 mg daily
[4] = parameters: method as in PMID 20380483; details: after oral administration of the named drug; cited from earlier work
[5] = cited from earlier work
[6] = metabolite AZT after oral phosphonate 2, 20 mg/kg, rats; cited from earlier work
IIIB strain of HIV = IIIB strain of HIV in blood mononuclear cells; cited from earlier work
HIV-1 [7] = details: cell cultures C8 and JM; cited from earlier work
MT-4 cells = details: MT-4 cell culture; cited from earlier work
HIV-1 [8] = details: MT-4 cell culture; cited from earlier work
[9] = canine whole blood at 37°С; cited from earlier work
HIV-1 [10] = details: MT-4, CEM-SS and CEM-X174 cell lines; cited from earlier work
HXB2 strain of HIV = HXB2 strain of HIV in blood mononuclear cells; cited from earlier work
HIV infection = details: cited from earlier work
mice = details: intraperitoneal administration to mice; cited from earlier work
HIV = details: cited from earlier work
[11] = cited from earlier work; remark: listed apart in the source
[12] = single oral dose of capsules of 2, 10 mg/kg
[13] = single oral dose of capsules of 2, 20 mg/kg
[14] = single oral dose of capsules of 2, 40 mg/kg
[15] = compound 2 orally 600 mg for 7 days, 24 h intervals, day 7

Cc1cn([C@H]2C[C@H](N=[N+]=[N-])[C@@H](CO)O2)c(=O)[nH]c1=O [AZT, 3’-azido-3’-deoxythymidine]
Cmax [1, 12]: 360 ± 240 ng/mL | Cmax/AUC [1, 12]: 0.119 ± 0.033 h⁻¹ | MRT [1, 12]: 8.90 ± 5.34 h | t1/2 [1, 12]: 4.57 ± 1.46 h | tmax [1, 12]: 4.7 ± 1.0 h | Cmax [1, 13]: 690 ± 490 ng/mL | Cmax/AUC [1, 13]: 0.107 ± 0.023 h⁻¹ | MRT [1, 13]: 12.0 ± 2.6 h | t1/2 [1, 13]: 9.7 ± 4.3 h | tmax [1, 13]: 5.0 ± 1.7 h | Cmax [1, 14]: 980 ± 560 ng/mL | Cmax/AUC [1, 14]: 0.100 ± 0.016 h⁻¹ | MRT [1, 14]: 12.2 ± 1.4 h | t1/2 [1, 14]: 7.0 ± 2.5 h | tmax [1, 14]: 6.0 ± 1.3 h | AUC of AZT [2]: 88500 ± 25500 ng·h/mL | Cmax of AZT [2]: 39640 ± 4240 ng/mL | MRT of AZT [2]: 2.10 ± 0.30 h | t1/2 of AZT [2]: 2.13 ± 0.71 h | tmax of AZT [2]: 1.0 h | С0 of AZT in plasma [3, 15]: 0.17 ± 0.07 mg/L | Сmin of AZT in plasma [3, 15]: 0.17 ± 0.07 mg/L | tmax of AZT ([3]; day 1): 2.7 h | tmax of AZT ([3]; day 7): 4 h | Cmax of AZT [4]: ~1200 ng/mL | tmax of AZT [4]: 0.5 to 0.8 h | half-life period (blood plasma) ([5]; AZT concentration after oral administration of phosphonate 2): 3.9 h | detection of AZT in organs and tissues (liver, kidneys, spleen, lungs, skeletal muscles, mesentery) ([5]; metabolite of phosphonate 2): detected in all these organs and tissues | AUC 0-t [6]: 2270 ng·h/mL | MRT [6]: 6.54 h | tmax [6]: 4 h | Сmax [6]: 0.4 mg/L

Cc1cn(C2CC(N=[N+]=[N-])C(CO[PH](=O)[O-])O2)c(=O)[nH]c1=O.[Na+] (centres unmarked) [Compound 1, sodium salt of AZT 5’-H-phosphonate]
selectivity index, times higher than that of AZT (IIIB strain of HIV): 1.5 times | anti-HIV activity, times higher vs. that of AZT (HIV-1 [7]): 10–20 times | toxicity as compared to AZT (MT-4 cells): lower | anti-HIV activity (HIV-1 [8]): moderate | selectivity index compared to AZT (HIV-1 [8]): higher than that of AZT | Т1/2 in canine whole blood [9]: 3 h | activity compared to AZT (HIV-1 [10]): lower than that of AZT by almost an order of magnitude | selectivity index, times higher than that of AZT (HXB2 strain of HIV): 15 times | therapeutic efficacy (HIV infection; HIV-infected patients receiving HAART): significant therapeutic efficacy | tolerability (HIV infection; adults and children): well tolerated in both adults and children | therapeutic effect (reduction of viral stress, immunorestoration, decrease in risk of concomitant diseases) (HIV infection; clinical practice): stable positive therapeutic effect | adverse effects typically observed with AZT (vomiting, nausea, headache, diarrhea, myalgia, anemia, thrombocytopenia, neutrocytopenia) (HIV infection; during phosphazide therapy): No adverse effects | safety in patients with opportunistic infections (HIV infection; patients with tuberculosis and liver pathologies of viral etiology): safe for patients with tuberculosis and liver pathologies of viral etiology | mean lethal dose (LD50) (mice): 2300 mg/kg | penetration of AZT through the placenta (HIV; AZT from phosphazide): capable of efficiently penetrating the placenta | effect on course of pregnancy, fetal maturity or viability (HIV; HIV-infected women): does not affect | prevention of vertical transmission of HIV (HIV; during pregnancy, combined with Retrovir or Nevirapine during childbirth and postnatal period): efficiently prevents vertical transmission of HIV | half-life in 100% human blood serum [11]: over 6 h
